The compounds below were run against T1, Recombinant human BRD4 containing dual bromodomains (BRD4-BD12 (1-477)) (Homo sapiens, UniProt O60885) (assay: BRD4 Alphascreen binding assay).
T1 construct: Recombinant human BRD4 containing dual bromodomains (BRD4-BD12 (1-477)); made in house; host or cells: E. coli BL21-CodonPlus (DE3), modified pET vector
In short: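 AlphaScreen proximity between Ni-chelate-bound BRD4-BD12 (1-477) and streptavidin-captured H4 K5/K8/K12/K16-acetyl peptide measured after 1 h room-temperature compound incubation and 30 min with 7.5 μg/ml beads. Buffer: 50 mM HEPES pH 7.5, 50 mM NaCl, 0.01% BSA, 0.01% Triton X-100; data plate-normalized and four-parameter fit for IC50.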

SMILES	IC50
COC(=O)c1cc(-c2cn(C(c3ccccn3)C3CCC3)c3ncc(-c4c(C)noc4C)cc23)ccn1 (stereo not shown) [P-0046, methyl 4-(1-(cyclobutyl(pyridin-2-yl)methyl)-5-(3,5-dimethylisoxazol-4-yl)-1H-pyrrolo[2,3-b]pyridin-3-yl)picolinate]	8 to 1000 µM
Cc1noc(C)c1-c1cnc2c(c1)c(-c1ccc(C(=O)O)cc1OC(C)C)cn2C1(C)CCOCC1 [P-0403, 4-(5-(3,5-dimethylisoxazol-4-yl)-1-(4-methyltetrahydro-2H-pyran-4-yl)-1H-pyrrolo[2,3-b]pyridin-3-yl)-3-isopropoxybenzoic acid]	8 to 1000 µM
Cc1noc(C)c1-c1cnc2c(c1)c(-c1c(F)cc(C(=O)O)cc1OC1CC1)cn2C1CCOCC1 [P-0397, 3-cyclopropoxy-4-(5-(3,5-dimethylisoxazol-4-yl)-1-(tetrahydro-2H-pyran-4-yl)-1H-pyrrolo[2,3-b]pyridin-3-yl)-5-fluorobenzoic acid]	8 to 1000 µM
Cc1noc(C)c1-c1cnc2c(c1)c(-c1ccnc(C(=O)O)c1)cn2C(C1CC1)C1CC1 [P-0041, 4-(1-(dicyclopropylmethyl)-5-(3,5-dimethylisoxazol-4-yl)-1H-pyrrolo[2,3-b]pyridin-3-yl)picolinic acid]	0.0001 to 1 µM
Cc1noc(C)c1-c1cnc2c(c1)c(-c1ccnc(C(=O)O)c1)cn2CC1CC1 [P-0045, 4-(1-(cyclopropylmethyl)-5-(3,5-dimethylisoxazol-4-yl)-1H-pyrrolo[2,3-b]pyridin-3-yl)picolinic acid]	0.0001 to 1 µM
CCOc1cc(C(=O)O)nc(OCC)c1-c1cn(-c2ccc(C#N)cc2F)c2ncc(-c3c(C)noc3C)cc12 [P-0423, 5-(1-(4-cyano-2-fluorophenyl)-5-(3,5-dimethylisoxazol-4-yl)-1H-pyrrolo[2,3-b]pyridin-3-yl)-4,6-diethoxypicolinic acid]	1 to 8 µM
Cc1noc(C)c1-c1cnc2c(c1)c(-c1c(Cl)cc(C(=O)O)cc1OC(C)C)cn2C1(C)CCOCC1 [P-0404, 3-chloro-4-(5-(3,5-dimethylisoxazol-4-yl)-1-(4-methyltetrahydro-2H-pyran-4-yl)-1H-pyrrolo[2,3-b]pyridin-3-yl)-5-isopropoxybenzoic acid]	8 to 1000 µM
Cc1noc(C)c1-c1cnc2c(c1)c(-c1cccc(C(=O)O)c1)cn2Cc1ccccn1 [P-0049, 3-(5-(3,5-dimethylisoxazol-4-yl)-1-(pyridin-2-ylmethyl)-1H-pyrrolo[2,3-b]pyridin-3-yl)benzoic acid]	8 to 1000 µM
Cc1noc(C)c1-c1cnc2c(c1)c(-c1c(Cl)cc(C(=O)O)cc1OC1CC1)cn2-c1ncccc1C#N [P-0409, 3-chloro-4-(1-(3-cyanopyridin-2-yl)-5-(3,5-dimethylisoxazol-4-yl)-1H-pyrrolo[2,3-b]pyridin-3-yl)-5-cyclopropoxybenzoic acid]	1 to 8 µM
CCOc1nc(C(=O)O)cc(C)c1-c1cn(-c2ccc(F)cc2F)c2ncc(-c3c(C)noc3C)cc12 [P-0412, 5-(1-(2,4-difluorophenyl)-5-(3,5-dimethylisoxazol-4-yl)-1H-pyrrolo[2,3-b]pyridin-3-yl)-6-ethoxy-4-methylpicolinic acid]	1 to 8 µM
Cc1nnn(C)c1-c1cnc2c(c1)c(-c1cccc(C(=O)O)c1)cn2[C@@H](C)c1ccccn1 [P-0449, (S)-3-(5-(1,4-dimethyl-1H-1,2,3-triazol-5-yl)-1-(1-(pyridin-2-yl)ethyl)-1H-pyrrolo[2,3-b]pyridin-3-yl)benzoic acid]	1 to 8 µM
Cc1noc(C)c1-c1cnc2c(c1)c(-c1c(F)cc(C(=O)O)cc1OC1CC1)cn2C(C1CC1)C1CC1 [P-0394, 3-cyclopropoxy-4-(1-(dicyclopropylmethyl)-5-(3,5-dimethylisoxazol-4-yl)-1H-pyrrolo[2,3-b]pyridin-3-yl)-5-fluorobenzoic acid]	1 to 8 µM
Cc1noc(C)c1-c1cnc2c(c1)c(-c1ccc(C(=O)O)cc1OC(F)(F)F)cn2C1CCC(C#N)C1 (stereo not shown) [P-0389, 4-(1-(3-cyanocyclopentyl)-5-(3,5-dimethylisoxazol-4-yl)-1H-pyrrolo[2,3-b]pyridin-3-yl)-3-(trifluoromethoxy)benzoic acid]	1 to 8 µM
Cc1noc(C)c1-c1cnc2c(c1)c(-c1cnn(CC(=O)O)c1)cn2C(c1ccccn1)C1CCCC1 (stereo not shown) [P-0036, 2-(4-(1-(cyclopentyl(pyridin-2-yl)methyl)-5-(3,5-dimethylisoxazol-4-yl)-1H-pyrrolo[2,3-b]pyridin-3-yl)-1H-pyrazol-1-yl)acetic acid]	1 to 8 µM
CCOc1cc(C(=O)O)c(F)cc1-c1cn(C2CCN(C(=O)OC(C)(C)C)CC2)c2ncc(-c3c(C)noc3C)cc12 [P-0442, 4-(1-(1-(tert-butoxycarbonyl)piperidin-4-yl)-5-(3,5-dimethylisoxazol-4-yl)-1H-pyrrolo[2,3-b]pyridin-3-yl)-5-ethoxy-2-fluorobenzoic acid]	8 to 1000 µM
Cc1noc(C)c1-c1cnc2c(c1)c(-c1cc(F)c(C(=O)O)cc1OC(F)(F)F)cn2-c1ccc(C2CC2)nc1 [P-0444, 4-(1-(6-cyclopropylpyridin-3-yl)-5-(3,5-dimethylisoxazol-4-yl)-1H-pyrrolo[2,3-b]pyridin-3-yl)-2-fluoro-5-(trifluoromethoxy)benzoic acid]	1 to 8 µM
CCc1onc(C)c1-c1cnc2c(c1)c(-c1ccc(C(=O)O)cc1OC(F)(F)F)cn2C1CCOCC1 [P-0401, 4-(5-(5-ethyl-3-methylisoxazol-4-yl)-1-(tetrahydro-2H-pyran-4-yl)-1H-pyrrolo[2,3-b]pyridin-3-yl)-3-(trifluoromethoxy)benzoic acid]	1 to 8 µM
CCOc1nc(C(=O)O)c(Cl)cc1-c1cn([C@H]2CCOC2)c2ncc(-c3c(C)noc3C)cc12 [P-0406, (S)-3-chloro-5-(5-(3,5-dimethylisoxazol-4-yl)-1-(tetrahydrofuran-3-yl)-1H-pyrrolo[2,3-b]pyridin-3-yl)-6-ethoxypicolinic acid]	8 to 1000 µM
CCOc1cc(C(=O)OC)nc(OCC)c1-c1cn(-c2ccc(F)cc2F)c2ncc(-c3c(C)noc3C)cc12 [P-0432, methyl 5-(1-(2,4-difluorophenyl)-5-(3,5-dimethylisoxazol-4-yl)-1H-pyrrolo[2,3-b]pyridin-3-yl)-4,6-diethoxypicolinate]	8 to 1000 µM
CCOc1nc(C(=O)O)cc(C)c1-c1cn(C2CCOCC2)c2ncc(-c3c(C)noc3C)cc12 [P-0411, 5-(5-(3,5-dimethylisoxazol-4-yl)-1-(tetrahydro-2H-pyran-4-yl)-1H-pyrrolo[2,3-b]pyridin-3-yl)-6-ethoxy-4-methylpicolinic acid]	8 to 1000 µM
Cc1noc(C)c1-c1cnc2c(c1)c(-c1c(Cl)cc(C(=O)O)cc1OC(F)(F)F)cn2-c1ncccc1C#N [P-0395, 3-chloro-4-(1-(3-cyanopyridin-2-yl)-5-(3,5-dimethylisoxazol-4-yl)-1H-pyrrolo[2,3-b]pyridin-3-yl)-5-(trifluoromethoxy)benzoic acid]	1 to 8 µM
COC(=O)c1cc(-n2cc(Cc3ccccc3)c3ncc(-c4c(C)noc4C)cc32)ccn1 [P-0052, methyl 4-(3-benzyl-6-(3,5-dimethylisoxazol-4-yl)-1H-pyrrolo[3,2-b]pyridin-1-yl)picolinate]	1 to 8 µM
CCOc1cc(C(=O)O)nc(OCC)c1-n1cc(-c2ccc(F)cc2F)c2ncc(-c3c(C)noc3C)cc21 [P-0431, 5-(3-(2,4-difluorophenyl)-6-(3,5-dimethylisoxazol-4-yl)-1H-pyrrolo[3,2-b]pyridin-1-yl)-4,6-diethoxypicolinic acid]	1 to 8 µM
Cc1nnn(C)c1-c1cnc2c(c1)c(-c1ccc(C(=O)O)cc1OC1CC1)cn2C1CCOCC1 [P-0413, 3-cyclopropoxy-4-(5-(1,4-dimethyl-1H-1,2,3-triazol-5-yl)-1-(tetrahydro-2H-pyran-4-yl)-1H-pyrrolo[2,3-b]pyridin-3-yl)benzoic acid]	1 to 8 µM
CCOc1cc(C(=O)O)nc(OCC)c1-c1cn(-c2cn(CC)nc2C)c2ncc(-c3c(C)noc3C)cc12 [P-0430, 5-(5-(3,5-dimethylisoxazol-4-yl)-1-(1-ethyl-3-methyl-1H-pyrazol-4-yl)-1H-pyrrolo[2,3-b]pyridin-3-yl)-4,6-diethoxypicolinic acid]	1 to 8 µM

— patent US11446287B2, “Compounds and methods for EP300 or CBP modulation and indications therefor” (Opna Immuno-Oncology SA, priority 2019, dated 2022)
